Measured values: patent US20250154193A1, “STEROID COMPOUND, AND PREPARATION METHOD THEREFOR AND APPLICATION THEREOF” (CHOLESGEN (SHANGHAI) CO., LTD., priority 2022, published 2025)

The compounds below were run on SREBP pathway (assay: SREBP luciferase reporter gene system (SRE-luciferase assay) in Huh-7/SRE-Luc cells). Conditions: Homo sapiens, sterol-deficient medium, compound treatment 16 hours, luciferase/GFP ratio.
Assay type: cell-based
Procedure: Huh-7/SRE-Luc, a human hepatocellular carcinoma cell line, was grown in a culture medium containing DMEM, 10% fetal bovine serum, 100 units/mL penicillin, 100 µg/mL streptomycin, and 200 μg/mL G418.
The Huh-7/SRE-Luc cell line is a human hepatocellular carcinoma cell line Huh-7 stably expressing LDLR promoter-luciferase and green fluorescent protein (GFP). The LDLR promoter region contains a sterol regulatory element (SRE) that can effectively and sensitively respond to the regulation of the transcription factor SREBP. The GFP signal serves as an internal reference to indicate changes in cell number. Therefore, this cell line can be used to screen for active small molecules that regulate the SREBP signaling pathway. […] Cells were incubated in a sterol-deficient medium (5% lipoprotein-deficient serum, 2 μM Lovastatin, 10 μM mevalonate) and treated with corresponding concentrations of compounds for 16 hours. After compound treatment, the cells were lysed with lysis buffer (E397A, Promega), followed by the addition of luciferase substrate (E1500, Promega). The SRE-driven luciferase activity was measured using a BioTek Synergy HTX microplate reader (including but not limited to this type of instrument). The fluorescence intensity of enhanced green fluorescent protein (EGFP) was also measured using the BioTek microplate reader (including but not limited to this type of instrument) and used as an internal reference. The ratio of SRE-driven luciferase activity to GFP fluorescence intensity was used as an indicator of SREBP pathway activity. The test data of each test compound was analyzed using Prism software to obtain the IC50 parameter of the compound.
The inhibitory effect of the compounds of the present disclosure on the SREBP pathway was tested by the method of bioassay example 2. The concentration gradient of each compound was designed as 0.01, 0.03, 0.1, 0.3, 1.0, 3.0, and […], with DMSO as a vehicle control.
In the case of C[C@H](CCCC(C)(C)O)[C@H]1CC[C@H]2[C@@H]3CC[C@H]4[C@@H](N)[C@@H](O)CC[C@]4(C)[C@H]3CC[C@]12C [compound 303, 4-amino-5α-cholest-3β,25-diol], the IC50 was 7.08 µM.
Compound C[C@H](CCCC(C)(C)O)[C@H]1CC[C@H]2[C@@H]3CC(=O)[C@H]4[C@@H](O)[C@@H](O)CC[C@]4(C)[C@H]3CC[C@]12C [compound 235, 25-hydroxy-4β-hydroxy-3β-hydroxy-5α-cholest-6-one] has an IC50 of 10.8 µM.
With C[C@H](CCCC(C)(C)O)[C@H]1CC[C@H]2[C@@H]3C[C@@H](N)[C@H]4[C@@H](O)[C@@H](O)CC[C@]4(C)[C@H]3CC[C@]12C [compound 295, 6-amino-5α-cholest-3β,4p,25-triol] the IC50 was > 10 µM.
C[C@H](CCCC(O)C(F)(F)F)[C@H]1CC[C@H]2[C@@H]3CC[C@H]4[C@@H](O)[C@@H](O)CC[C@]4(C)[C@H]3CC[C@]12C (stereo partly drawn) [compound 232, 24-(2,2,2-trifluoro-1-hydroxyethyl)-5α-cholan-3β,4β-diol] was tested, and the IC50 was 0.084 µM.
C[C@H](CCCC(C)(C)O)[C@H]1CC[C@H]2[C@@H]3CC[C@H]4C[C@@H](OC(=O)CO)CC[C@]4(C)[C@H]3CC[C@]12C [compound 292, (1R,3aS,3bR,5aS,7S,9aS,9bS,11aR)-1-[(2R)-6-hydroxy-6-methylheptan-2-yl]-9a,11a-dimethylhexadecahydro-1H-cyclopenta[1,2-i]phenanthren-7-yl hydroxyacetate] was tested, and the IC50 was 0.171 µM.
Work on C[C@H](CCCC(C)(C)O)[C@H]1CC[C@H]2[C@@H]3CC[C@H]4CC(CO)CC[C@]4(C)[C@H]3CC[C@]12C (stereo partly drawn) [compound 308, 3-(hydroxymethyl)-5α-cholest-25-ol] yielded an IC50 of 0.979 µM.
C[C@H](CCCC(C)(C)O)[C@H]1CC[C@H]2[C@@H]3CC[C@H]4[C@@H](O)[C@@H](OC(=O)CO)CC[C@]4(C)[C@H]3CC[C@]12C [compound 313, (1R,3aS,3bS,5aR,6R,7S,9aR,9bS,11aR)-6-hydroxy-1-[(2R)-6-hydroxy-6-methylheptan-2-yl]-9a,11a-dimethylhexadecahydro-1H-cyclopenta[1,2-i]phenanthren-7-yl hydroxyacetate] was tested, and the IC50 was 0.07 µM.
C[C@H](CCCC(C)(C)O)[C@H]1CC[C@H]2[C@@H]3C[C@@H](O)[C@H]4C[C@@H](O)CC[C@]4(C)[C@H]3CC[C@]12C [compound 206, cholest-3β,6,25-triol] was tested, and the IC50 was 0.464 µM.
Work on C[C@H](CCCC(C)(C)O)[C@H]1CC[C@H]2[C@@H]3CC[C@H]4C(F)(F)[C@@H](O)CC[C@]4(C)[C@H]3CC[C@]12C [compound 291, (1R,3aS,3bS,5aR,7S,9aR,9bS,11aR)-6,6-difluoro-1-[(2R)-6-hydroxy-6-methylheptan-2-yl]-9a,11a-dimethylhexadecahydro-1H-cyclopenta[1,2-a]phenanthrene-7-ol] yielded an IC50 of 0.065 µM.
With C[C@H](CCCC(C)(C)O)[C@H]1CC[C@H]2[C@@H]3CC(O)C4(F)C[C@@H](O)CC[C@]4(C)[C@H]3CC[C@]12C (stereo partly shown) [compound 226] the IC50 was 46.6 µM.
For CCC(O)CCC[C@@H](C)[C@H]1CC[C@H]2C3CC[C@H]4C[C@@H](O)CC[C@]4(C)C3CC[C@]12C (stereo partly drawn) [compound 211, (1R,3aS,5aS,7S,9aS,11aR)-1-[(2R)-6-hydroxyoctan-2-yl]-3a,9a,11a-trimethylhexadecahydro-1H-cyclopenta[1,2-α]phenanthren-7-ol], the IC50 was 0.395 µM.
Compound C[C@H](CCCC(O)c1c(F)cccc1F)[C@H]1CC[C@H]2[C@H]3[C@H](CC[C@]12C)[C@@]1(C)CC[C@H](O)C(=O)[C@@H]1CC3(F)F (stereo partly drawn) [compound 301, (1R,3aS,3bS,5aR,7S,9aR,9bS,11aR)-1-[(2R)-6-(2,6-difluorophenyl)-6-hydroxyhexan-2-yl]-4,4-difluoro-7-hydroxy-9a,11a-dimethylhexadecahydro-1H-cyclopenta[1,2-α]phenanthren-6-one] has an IC50 of 0.04 µM.
C[C@H](CCCC(C)(C)O)[C@H]1CC[C@H]2[C@@H]3C(=O)C[C@H]4[C@@H](O)[C@@H](O)CC[C@]4(C)[C@H]3CC[C@]12C [compound 242, 25-hydroxy-4β-hydroxy-3β-hydroxy-5α-cholest-7-one] showed an IC50 of 0.556 µM.
COC1C[C@H]2[C@@H]3CC[C@H]([C@H](C)CCCC(C)(C)O)[C@@]3(C)CC[C@@H]2[C@@]2(C)CC[C@H](O)CC12O (stereo partly drawn) [compound 208, 6-methoxycholest-3β,5,25-triol] was tested, and the IC50 was 1.93 µM.
With C[C@H](CCCC(C)(C)O)[C@H]1CC[C@H]2[C@@H]3CC(C#N)C4(O)C[C@@H](O)CC[C@]4(C)[C@H]3CC[C@]12C (stereo partly shown) [compound 227] the IC50 was 1.33 µM.
With C[C@H](CCN1CCc2ccccc2C1=O)[C@H]1CC[C@H]2[C@@H]3CC[C@H]4C[C@@H](O)CC[C@]4(C)[C@H]3CC[C@]12C [compound 224] the IC50 was > 10 µM.
For C[C@H](CCCC1(O)CC1)[C@H]1CC[C@H]2[C@@H]3CC[C@H]4[C@@H](O)[C@@H](O)CC[C@]4(C)[C@H]3CC[C@]12C [compound 245, (1R,3aS,5aR,6R,7S,9aR,11aR)-1-[(2R)-5-(hydroxycyclopropyl)pentan-2-yl]-9a,11a-dimethylhexadecahydro-1H-cyclopenta[1,2-a]phenanthrene-6,7-diol], the IC50 was 0.192 µM.
Compound C[C@H](CCCC(O)c1ccccc1Cl)[C@H]1CC[C@H]2[C@@H]3CC[C@H]4[C@@H](O)[C@@H](O)CC[C@]4(C)[C@H]3CC[C@]12C (stereo partly drawn) [compound 322, 24-[(2-chlorophenyl)(hydroxy)methyl]-5α-cholan-3β,4β-diol] has an IC50 of 0.61 µM.
C[C@H](CCCC(C)(C)O)[C@H]1CC[C@H]2[C@@H]3CC[C@H]4C[C@@H](OC(=O)CC(=O)O)CC[C@]4(C)[C@H]3CC[C@]12C [compound 293, 3-{[(1R,3aS,3bR,5aS,7S,9aS,9bS,11aR)-1-[(2R)-6-hydroxy-6-methylheptan-2-yl]-9a,11a-dimethylhexadecahydro-1H-cyclopenta[1,2-a]phenanthren-7-yl]oxy}-3-oxopropanoic acid] was tested, and the IC50 was 0.136 µM.
CCC(O)CCC[C@@H](C)[C@H]1CC[C@H]2[C@@H]3CC[C@H]4[C@@H](O)[C@@H](O)CC[C@]4(C)[C@H]3CC[C@]12C (stereo partly drawn) [compound 241, 24-(1-hydroxypropyl)-5α-cholan-3β,4β-diol] was tested, and the IC50 was 0.328 µM.
For COC(=O)C1CC[C@@]2(C)[C@@H](CC[C@@H]3[C@@H]2CC[C@]2(C)[C@@H]([C@H](C)CCCC(C)(C)O)CC[C@@H]32)C1 (stereo partly drawn) [compound 321, methyl 25-hydroxy-5α-cholest-3-carboxylate], the IC50 was 7.2 µM.
C[C@H](CCCC(C)(C)O)[C@H]1CC[C@H]2[C@@H]3C[C@H](O)[C@H]4C[C@@H](O)CC[C@]4(C)[C@H]3CC[C@]12C [compound 240, cholest-30,6a,25-triol] was tested, and the IC50 was 0.67 µM.
In the case of C[C@H](CCCC(O)c1ccc(F)cc1)[C@H]1CC[C@H]2[C@@H]3CC[C@H]4[C@@H](O)[C@@H](O)CC[C@]4(C)[C@H]3CC[C@]12C (stereo partly drawn) [compound 316, 24-[(4-fluorophenyl)(hydroxy)methyl]-5α-cholan-3β,4β-diol], the IC50 was 0.1 µM.
C[C@H](CCCC(C)(C)O)[C@H]1CC[C@H]2[C@@H]3CC[C@H]4C(C)(O)[C@@H](O)CC[C@]4(C)[C@@]3(C)CC[C@]12C (stereo partly drawn) [compound 254, 4-methyl-5α-cholest-3β,4,25-triol] gave an IC50 of 6.19 µM.
Compound C[C@H](CCCC(O)C1CC1)[C@H]1CC[C@H]2[C@@H]3CC[C@H]4C[C@@H](O)CC[C@]4(C)[C@H]3CC[C@]12C (stereo partly drawn) [compound 217, 24-[cyclopropyl(hydroxy)methyl]-5α-cholan-3β-ol] has an IC50 of 0.329 µM.
C[C@H](CCCC(C)(C)O)[C@H]1CC[C@H]2[C@@H]3CC[C@H]4C(=NO)[C@@H](O)CC[C@]4(C)[C@H]3CC[C@]12C (stereo in doubt) [compound 273, [(1R,3aS,3bS,5aR,6E,7S,9aR,9bS,11aR)-7-hydroxy-1-[(2R)-6-hydroxy-6-methylheptan-2-yl]-9a,11a-dimethylhexadecahydro-1H-cyclopenta[1,2-a]phenanthren-6-ylidene]hydroxylamine] showed an IC50 of 0.279 µM.
C[C@H](CCC[C@H](O)c1ccccc1F)[C@H]1CC[C@H]2[C@@H]3CC[C@H]4[C@@H](O)[C@@H](O)CC[C@]4(C)[C@H]3CC[C@]12C (single isomer, unassigned) [compound 280, 24-[R-(2-fluorophenyl)(hydroxy)methyl]-5α-cholan-30,40-diol or 24-[S-(2-fluorophenyl)(hydroxy)methyl]-5α-cholan-30,40-diol] gave an IC50 of 0.118 µM.
For C[C@H](CCCC(C)(C)O)[C@H]1CC[C@H]2[C@@H]3CC(O)[C@H]4[C@@H](O)[C@@H](O)CC[C@]4(C)[C@H]3CC[C@]12C (stereo partly drawn) [compound 244, cholest-3β,4p,6,25-tetraol], the IC50 was 3.76 µM.
